Measured values from US20080207594A1, “Use of Gsk-3 Inhibitors for Preventing and Treating Pancreatic Autoimmune Disorders” (Davelogen Aktiengesellschaft, priority 2005, published 2008).
Entries after “also recorded” stand apart in the source; their conditions may differ.

What was measured:
Pax4 [1] = test: Pax4 transcription in INS-1E insulinoma cells, quantitative RT-PCR; type: cell-based, rat; details: INS-1E cells; for stimulation of Pax4 transcription relative to activin A (in words): FIG. 16
Description: The response of the Pax4 gene to test compounds was investigated in the rat insulinoma cell line INS-1E. INS-1E cells are known to express Pax4 and to upregulate Pax4 levels in response to the treatment with activin-A and betacellulin. In the search for novel beta cell mitogens and/or beta cell protective agents the inventors treated INS-1E cells with different test compounds.
Total RNA from 8×10^4 cells growing on 4 cm^2 surface area of a tissue culture dish was extracted using Qiagen RNAeasy kit according to the instructions of the manufacturer (Qiagen) and 2 μg was converted into cDNA. Primers for pax4, 18S RNA, and rat RNA polymerase II largest subunit (RPB1) were designed using the Primer Express 1.5 Software from Applied Biosystems and sequences can be obtained upon request. Quantitative real-time PCR was performed using Applied Biosystems SDS 7000 detection system. Amplifications from 2 independent experiments were performed in duplicate for each transcript and mean values were normalized to the mean value of the reference RNA 18S RNA.
Cells were seeded at a density of 2×10^4 cells per cm^2 6 to 8 days before the treatment with chemicals. During the growth period the medium was changed once. The cells were incubated for different periods of time with chemicals under serum-free conditions. The cells were harvested in Qiagen RNAeasy cell lysate buffer and immediately transferred to dry ice. The samples were stored at −20° C. until RNA isolation was carried out.
Cells were seeded at a density of 2×10^4 cells per cm^2 6 to 8 days before the treatment with chemicals. During the growth period the medium was changed once. The cells were incubated for different periods of time with chemicals under serum-free conditions. The cells were harvested in Qiagen RNA easy cell lysate buffer and immediately transferred to dry ice. The samples were stored at −20 degree until RNA isolation was carried out.

primary rat beta cells = test: In vitro beta cell proliferation assay (Ki-67 / C-peptide staining of dispersed islets); type: cell-based; details: incubation 72 hours; for replication of primary rat beta cells, agent alone: FIG. 12, FIG. 14
Description: About 1.5×10^4 beta cells were inspected per experiment and the percentage of double positive cells was determined. The number of replicating beta cells is expressed relative to control cells maintained in 10% FCS (FIG. 9A). Prolactin treated cells served as a technical control. Identification of C-peptide and Ki67 double positive beta cells dispersed on adhesive slides was carried out by immunohistochemistry (FIG. 9B).
We investigated the growth promoting effects by monitoring the percentage of replicating beta cells in isolated rat islets. Replicating beta cells were identified by immunohistological staining of dispersed islets with antibodies against C-peptide, a fragment of proinsulin, and the cell division marker Ki-67.
Islets of Langerhans are isolated by standard Liberase digestion method from rat pancreata (Liberase™ Cl enzyme blend BMB Cat. # 1814-435, ROCHE).
Following the culture period the islets are dispersed gently by titration in Ca^2+ and Mg^2+ free PBS. […] The adherent islet cells are fixed and stained by standard immunofluorescence techniques for C-peptide, a fragment of proinsulin and Ki-67 a marker of proliferating cells.
An Olympus microscope equipped with an automatic image acquisition device (Olympus) is used for counting of C-peptide positive beta cells. Proliferating C-peptide/Ki-67 double positive beta cells are counted manually. Thereby the fraction of proliferating beta cells can be determined.

Pax4 [2] = test: Pax4 transcription in rat islets, quantitative RT-PCR; type: cell-based
Description: The response of the Pax4 gene to two compounds was investigated in rat islets. […] No effects were observed on the expression levels of cyclophilin B and RNA polymerase II largest subunit (RPB1) indicating a specific regulation of the Pax4 gene.
Total RNA from 200 to 400 islets growing in wells with 4 cm^2 surface area of a tissue culture dish was isolated according to instruction of the manufacturer of Trizol™ reagent. To further purify the RNA and to remove remaining DNA contaminations RNA was treated with the Qiagen RNAeasy kit according to the instructions of the manufacturer (Qiagen) and about 1 μg was converted into cDNA. Primers for pax4, 18S RNA, and rat RNA polymerase II largest subunit (RPB1) were designed using the Primer Express 1.5 Software from Applied Biosystems. Quantitative real-time PCR was performed using Applied Biosystems SDS 7000 detection system. Amplifications from at least 2 independent experiments were performed in duplicate for each transcript and mean values were normalized to the mean value of the reference RNA 18S RNA.
Rat islets were isolated from Wistar rats and cultured as described (Brun et al., 2004, JCB; 167: 1123-1135). In brief, 10 ml ice-cold liberase solution (Roche) was injected into the pancreas via the common bile duct. After dissection the pancreas was incubated for 40 minutes at 37° C. and then further dissociated by repeated pipetting using a 10 ml pipette. Islets were isolated by applying digested tissue to a ficoll-gradient before they were manually picked using a stereomicroscope. Islets were placed in bacteriological wells and compounds were administered as indicated. Islets were harvested in Trizol™ and immediately transferred to dry ice. The samples were stored at −20° C. until RNA isolation was carried out.

INS-1E cells = test: Protection against apoptotic signals, nucleosomal fragmentation (cell death detection ELISA) and morphology; type: cell-based, rat
Description: FIG. 7: Determination of cytokine or high glucose and fatty acid induced Nucleosomal-fragmentation in INS-1 cells. To induce apoptosis INS-1 cells were exposed to the cytokines IL-1 beta at 4 ng/ml and IFN-gamma at 1 U/ml (Cyt. in figure A) or glucose at […] and palmitate at […] (Pal/Gluc in figure B) for 24 hours. 1 hour before the application of these reagents indicated cell samples were treated with 10 μM 1-Azakenpaullone (AzaP) or 15 μM NG-monomethyl-L-arginine monoacetate (L-NMMA) an inhibitor of the inducible nitric oxide synthase (iNOS). Apoptosis was assessed by determination of nucleosomal accumulation in the cytosolic extracts using a cell death detection ELISA kit. Nucleosomal release is expressed relative to untreated control cells (Co.).
FIG. 8: Cell morphology of treated cells was inspected by light microscopy. Cell morphologies of untreated (A), Pal/Gluc (B) and Pal/Gluc+AzaP (C) treated cells are shown.
The beta cell line INS-1E was used to investigate anti-apototic effects of the compounds of the invention on beta cells. Apotosis was induced by culturing cells with a cytokine combination (interleukine-1beta/interferon gamma) or with high concentrations of both glucose and palmitate. 1-Azakenpaullone strongly (60%) inhibited cytokine-induced apoptosis (FIG. 7A), with a weaker effect (25%) against glucolipotoxicity induced apoptosis (FIG. 7B). The state of the treated and untreated cells was analyzed by microscopy.
INS-1E cells were cultured as described (Merglen et al., (2004) Endocrinology; 145: 667-678). Cells were seeded at a density of 1×10^4 cells per 96-well in 96 well plates in 200 μl culture medium for 3 days. Then, cells were cultured for 1 day in 100 μl medium containing 1% FCS and 5 mM glucose. […] The rate of apoptosis was measured by the specific determination of mono- and oligonucleosomes in the cytoplasmic fraction of cell lysates using a cell death detection ELISA kit (ROCHE Cat. No. 1774425). The assay is based on a quantitative sandwich-enzyme-immunoassay-principle using mouse monoclonal anti-histone and anti-DNA peroxidase antibodies. […]

In the case of `COc1ccc(CNC(=O)Nc2ncc([N+](=O)[O-])s2)cc1` [GSK-3 inhibitor VIII, N-(4-Methoxybenzyl)-N′-(5-nitro-1,3-thiazol-2-yl)urea], the “induction of Pax4 expression (in words)” value (Pax4 [1]) is reported as “induction of Pax4 expression was also found”.

NGF: nerve growth factor was tested, and the “replication of primary rat beta cells, growth factor combined with GSK3 inhibitor 1-Azakenpaullone” value (primary rat beta cells; FIG. 12) was “potentiate the growth promoting effects” and the “replication of primary rat beta cells, agent alone” value (from here on “replication … agent alone”) (primary rat beta cells) was “not sufficient to trigger beta cell replication”.

`O=C1Nc2cc(Br)ccc2/C1=C1/Nc2ccccc2/C1=N\O` [(2′Z,3′E)-6-Bromoindirubin-3′-oxime] was tested, and the “induction of Pax4 expression (in words)” value (Pax4 [1]) was “induction of Pax4 expression was also found”.

With `CC(=O)O/N=C1/C(=C2/C(=O)Nc3cc(Br)ccc32)Nc2ccccc21` [(2′Z,3′ E)-6-Bromoindirubin-3′-acetoxime] the “induction of Pax4 expression (in words)” value (Pax4 [1]) was “induction of Pax4 expression was also found”.

With “GIP: incretin GIP (gastrin inhibitory protein) (YAEGTFISDYSIAMDKIHQQDFVNWLLAQKGKKNDWKHNITQ; Gastric inhibitory polypeptide; UniProt P09681 52-93, looked up)” the “replication … agent alone” value (primary rat beta cells) was “trigger beta cell replication” and the “replication of primary rat beta cells, GIP combined with GSK3 inhibitor CHIR99021” value (primary rat beta cells; FIG. 14) was “cooperative effects”.

In the case of exendin-4, the “replication … agent alone” value (primary rat beta cells) is reported as “trigger beta cell replication”.

For `O=C1Cc2c([nH]c3ccc([N+](=O)[O-])cc23)-c2ccccc2N1` [Alsterpaullone], the “induction of relative Pax4 expression compared to the control” value (Pax4 [1]; 20 μM) was “about 7 fold”.

In the case of `Cc1c[nH]c(-c2cnc(NCCNc3ccc(C#N)cn3)nc2-c2ccc(Cl)cc2Cl)n1` [CHIR99021], the “replication … agent alone” value (primary rat beta cells) is reported as “trigger beta cell replication; also recorded: promotes replication of primary rat beta cells”.

For `O=C1Cc2c([nH]c3ccc(Br)cc23)-c2ncccc2N1` [1-Azakenpaullone], the “Pax4 RNA levels compared with technical control activin-A” value (Pax4 [2]) was “induces higher Pax4 RNA levels than activin-A”, the “time course of Pax4 RNA levels” value (Pax4 [2]) was “transiently up-regulates Pax4 RNA levels” and the “induction of relative Pax4 expression” value (Pax4 [1]; 3 μM) was “about 6 fold”. The “cell morphology by microscopy, signs of cell death” value (INS-1E cells; INS-1E exposed to toxic agents (Pal/Gluc), FIG. 8) was “partially antagonizes this effect”, the “inhibition of glucolipotoxicity induced apoptosis” value (INS-1E cells; INS-1E, glucose at 25 nM and palmitate at 0.04 nM for 24 hours, 10 μM compound 1 hour before, FIG. 7B) was 25% and the inhibition at 10 µM (INS-1E cells; Rattus norvegicus, INS-1E, IL-1 beta 4 ng/ml and IFN-gamma 1 U/ml for 24 hours, 10 μM compound 1 hour before, FIG. 7A, read-out: inhibition of cytokine-induced apoptosis) was 60%.

B1: activin-A: technical control previously shown to activate Pax4 transcription in rat islets (protein, UniProt P08476 311-426, looked up)
Inhibin beta A chain: GLECDGKVNICCKKQFFVSFKDIGWNDWIIAPSGYHANYCEGECPSHIAGTSGSSLSFHSTVINHYRMRGHSPFANLKSCCVPTKLRPMSMLYYDDGQNIIKKDIQNMIVEECGCS
modifications: Inhibin beta A chain
B1 was tested, and the “time course of Pax4 RNA levels” value (Pax4 [2]) was “more sustained increase in Pax4 RNA levels”.

B2: activin AB: protein related to activin A (protein, UniProt P08476 311-426; P09529 293-407, looked up)
Inhibin beta A chain: GLECDGKVNICCKKQFFVSFKDIGWNDWIIAPSGYHANYCEGECPSHIAGTSGSSLSFHSTVINHYRMRGHSPFANLKSCCVPTKLRPMSMLYYDDGQNIIKKDIQNMIVEECGCS
Inhibin beta B chain: GLECDGRTNLCCRQQFFIDFRLIGWNDWIIAPTGYYGNYCEGSCPAYLAGVPGSASSFHTAVVNQYRMRGLNPGTVNSCCIPTKLSTMSMLYFDDEYNIVKRDVPNMIVEECGCA
In the case of B2, the “stimulation of Pax4 transcription relative to activin A (in words)” value (Pax4 [1]) is reported as “almost equally potent in stimulating Pax4 transcription as activin A”.

B3: BMP 7: TGF-beta family member (protein, UniProt P18075 293-431, looked up)
Bone morphogenetic protein 7: STGSKQRSQNRSKTPKNQEALRMANVAENSSSDQRQACKKHELYVSFRDLGWQDWIIAPEGYAAYYCEGECAFPLNSYMNATNHAIVQTLVHFINPETVPKPCCAPTQLNAISVLYFDDSSNVILKKYRNMVVRACGCH
B3 was tested, and the “stimulation of Pax4 transcription relative to activin A (in words)” value (Pax4 [1]) was “hardly induced Pax4 gene transcription”.

B4: BMP 4: TGF-beta family member (protein, UniProt P12644 293-408, looked up)
Bone morphogenetic protein 4: SPKHHSQRARKKNKNCRRHSLYVDFSDVGWNDWIVAPPGYQAFYCHGDCPFPLADHLNSTNHAIVQTLVNSVNSSIPKACCVPTELSAISMLYLDEYDKVVLKNYQEMVVEGCGCR
B4 was tested, and the “stimulation of Pax4 transcription relative to activin A (in words)” value (Pax4 [1]) was “hardly induced Pax4 gene transcription”.

B5: betacellulin: growth factor (protein, UniProt P35070 32-111, looked up)
Betacellulin: DGNSTRSPETNGLLCGDPEENCAATTTQSKRKGHFSRCPKQYKHYCIKGRCRFVVAEQTPSCVCDEGYIGARCERVDLFY
modifications: Betacellulin
notes: growth factor
For B5, the “replication … agent alone” value (primary rat beta cells) was “does not influence replication of primary rat beta cells”.
